Test: gradient 5% acetonitrile 3 min, to 50% in 2 min, to 85% in 15 min, held 3 min, 100 µL/min
Details: column: Zorbax Extend-C18 2.1 x 50 mm; eluents: water / acetonitrile, 0.1% formic acid
In short: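 Retention times come from adduct peaks that were picked computationally and then checked by hand. The standards, pure and pooled in mixtures of ~100 molecules, were run on a Zorbax Extend-C18 column (2.1 × 50 mm, 1.8 μm) at 100 μL/min with water and acetonitrile, each with 0.1% formic acid. Detection was by quadrupole time-of-flight mass spectrometry in positive and negative ionization mode, with a dead volume of 40 μL and a dwell volume of 900 μL.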

Structure (SMILES)	RP-LC retention time [s]
CCn1c(CC2CCN(C(=O)NCCc3ccccc3)C2)nc2cccnc21 (stereo unspecified)	588
CCOc1ccc(CC(=O)N2CC(C(=O)NC)C3(CCCC3)C2)cc1OCC (stereo unspecified)	726
CN1CCCCCCN(C(=O)c2cccn2C)[C@H]2CCC[C@H]2C1=O	816
Cc1ccc(C(C)NC(=O)C2CC(=O)N(c3cccc(NC(=O)C(C)C)c3)C2)c(C)c1 (stereo unspecified)	868
CCOC(=O)CCc1c(C)nn(-c2cc(N(C)C)ncn2)c1C	834
CCCn1cc(C(=O)NCC2CCCO2)c2cccnc21 (stereo unspecified)	669
Cc1noc(C)c1CNC(=O)Cc1ccc(F)cc1	713
CCCn1cc(S(=O)(=O)Nc2ccccc2)c2cccnc21	838
Cc1ccc2c(c1)C(C)(C)C(=O)N2CC(=O)N1CCCCC1	860
O=C(NCc1ccc(F)cc1F)c1csc(C(=O)NC2CCCC2)n1	895
Cc1noc(-c2cccc(OC3CN(C(=O)NC(C)C)C3)c2)n1	760
CCc1noc(NC(C)=O)c1-c1ccc(C)c(S(=O)(=O)Nc2ccc(OC)cc2OC)c1	794
CN1C(=O)CC[C@]2(C(=O)NCc3cc(F)ccc3F)CCCC[C@@H]12	575
Cc1nc2nc(-c3ccc(Cl)cc3)nn2c(C)c1CC(=O)NC(C)C	790
Cc1ccc(C(C)NC(=O)c2cn3c(n2)CCCC3)c(C)c1 (stereo unspecified)	642
CCCNC(=O)N1C[C@@H]2C(=O)N(Cc3ccc4c(c3)OCO4)C(=O)[C@@H]2C1	708
Fc1ccccc1-c1nc(-c2cn(-c3ccccc3)nn2)no1	1230
COc1cccc(-n2ccn3cc(-c4ccc(Cl)cc4)nc3c2=O)c1	875
CCc1ccc(OCc2nc(CCN(C)C(=O)c3cccs3)no2)cc1	924
CCOCCCNC(=O)NC1CCN(c2nc3ccccc3n(C)c2=O)CC1	690
CCC1Cn2c(C(=O)NCCc3c[nH]c4ccccc34)cc3c(Cl)ccc(c32)O1 (stereo unspecified)	1220

Structure (SMILES)	RP-LC retention time [s]
CC(C)(C)c1ccc2c(c1)N(Cc1nc(-c3ccccc3Cl)no1)C(=O)CO2	1240
CC(C)NC(=O)CCCN1C(=O)c2ccccc2Sc2ncccc21	674
CCOC(=O)Cc1ccc(NC(=O)NC2CCN(c3ccc(F)cc3)C2=O)cc1 (stereo unspecified)	812
CSc1ccc(-c2noc(Cc3nnc(-c4ccc(Cl)cc4)o3)n2)cc1	1120
O=C(CCC(=O)N1CCOc2ccccc21)Nc1c(F)c(F)c(F)c(F)c1F	912
CCS(=O)(=O)N1CCc2ccc(NC(=O)c3ccco3)cc2C1	682
CS(=O)(=O)Nc1cccc(OCc2nnc(-c3ccccc3)o2)c1	798
CSc1ccc(-c2noc(Cn3c(=O)n(-c4ccccc4F)c(=O)c4sccc43)n2)cc1	1040
CCOc1ccc(Nc2nc(-c3c(C)nc4ccccn34)cs2)cc1	722
Cc1[nH]c(C(=O)Nc2ccccc2)c(C)c1S(=O)(=O)N1CCCCC1	925
COc1cc(OC)c(NC(=O)N2CCCC2c2nncn2C2CCCC2)cc1Cl (stereo unspecified)	668
CCc1cccc(-n2nnc(C(=O)NCCOC)c2-c2ccncc2)c1	715
Cc1cccc(-c2c3c(=O)n(C)c(=O)n(C)c3c3n2CCOC3c2ccco2)c1 (stereo unspecified)	934
COc1ccc(C2CCN(S(C)(=O)=O)CC2)cc1	845
CCOc1ccc(CN2CCC3(CC2)CC(O)CCO3)cc1 (stereo unspecified)	593
O=C(CNC(=O)c1ccc(=O)[nH]c1)NCC1CCCCC1	599
COc1cccc(CN(C)C2CCc3nn(CC4CC4)c(=O)n3CC2)n1 (stereo unspecified)	587
O=C(O)c1cc(-c2ccccc2)nc2ccccc12	849
CCn1nccc1C(=O)NCc1cccnc1OC	662
CCN1CCc2nc(NC(=O)C3CCN(S(=O)(=O)c4cccs4)CC3)sc2C1	634
COC(=O)c1ccc2nc(NC(=O)c3ccccc3S(C)(=O)=O)sc2c1	744

Structure (SMILES)	RP-LC retention time [s]
Cc1nn(-c2ccccc2)c2c1C(c1ccc([N+](=O)[O-])cc1)C(C#N)=C(N)O2 (stereo unspecified)	760
CCCn1c(=O)sc2cc(S(=O)(=O)N3CCC(C(=O)Nc4cc(C)ccc4C)CC3)ccc21	985
COCCN1CCC(CNC(=O)C(=O)Nc2cccc(SC)c2)CC1	563
CC(C)CC(=O)N1C[C@H](c2nc(-c3cccnc3)no2)[C@@H](C)C1	751
CCc1ccc(NC(=O)c2cc(=O)n(C)c3c2c(=O)n(C)c(=O)n3C)cc1	870
Cn1cccc1C(=O)N1CC(c2nc(CCOC3CCCC3)no2)C1	845
CC(C)CC(=O)NCCC1CCN(C(=O)Nc2cc(F)ccc2F)CC1	1190
CC(C)CCn1nc2c(S(=O)(=O)N3CCc4ccccc4C3)cccn2c1=O	1010
COc1cccc(S(=O)(=O)NCc2ccc(C(=O)Nc3cccc(Cl)c3)cc2)c1	922
Fc1ccc(-c2noc(Cc3nnc(-c4cccc(Br)c4)o3)n2)cc1	1120
Cc1nn(-c2ccccc2)c(C)c1S(=O)(=O)N1CCC(C(=O)N2CCCCCC2)CC1	912
Cc1csc(COc2ccc(C(=O)NC(C)CCc3ccccc3)cc2)n1 (stereo unspecified)	595
COCCN(C)C(=O)c1cn(C2CN(S(=O)(=O)C(C)C)C2)nn1	635
O=C(Cn1cnc2c(sc3nc(-c4ccccc4)ccc32)c1=O)Nc1cccc(Cl)c1	1080
COc1ccc(Br)cc1CNC(=O)C1CCCN(C(=O)c2[nH]c(C)cc2C)C1 (stereo unspecified)	808
CC(C)c1ccc(CN2C[C@@H]3C(=O)N(CCc4ccccc4)C(=O)[C@@H]3C2)cc1	772
Cc1ccc(CNC(=O)C2CCN(S(=O)(=O)c3cc(C(=O)N4CCCC4)n(C)c3)CC2)o1	699
CCc1noc(-c2cc(=O)n(CC(=O)NCc3ccccc3OC)c3ccccc23)n1	900
CCN1CCCC(Cn2cc(COc3ccc4c(c3)CCC4)nn2)C1 (stereo unspecified)	679
COc1cc(C[C@H](C)N)c(OC)cc1I	705

Other lines, results leading:

RP-LC retention time [s]	Structure (SMILES)
969	Cc1ccc(-c2nnc(-c3ccccc3Cl)o2)cc1S(=O)(=O)N1CCOCC1
747	CN(C)S(=O)(=O)c1ccc(C(=O)N2CCC(c3nnc(C(F)(F)F)o3)CC2)cc1
758	Cc1cc(=O)n(CC(=O)Nc2ccc(Cl)cc2)c(N2CCC(C)CC2)n1
1040	CCc1ccc(NC(=O)Cn2nc(N3CCSCC3)c3ccccc3c2=O)cc1
1020	COc1ccccc1CNC(=O)c1nnc(-c2ccc(S(=O)(=O)N3CCC(C)CC3)cc2)o1
867	O=C(NC(c1ccccc1)c1nnc(N2CCCC2)o1)c1cccc(Cl)c1 (stereo unspecified)
708	O=C([C@@H]1C[C@H](F)CN1C(=O)Nc1cccc(F)c1)N1CCCCC1
995	Cc1ccc(C)c(S(=O)(=O)N2CCN(c3ccc(-n4nc(C)c(C)c4C)nn3)CC2)c1
600	O=C(Nc1ccc(N2CCOCC2)cc1)C1CCCN(c2nnc3ccccn23)C1 (stereo unspecified)
787	Cc1ccc(CN2C(=O)NC3(CCN(C(=O)c4cccn4C)CC3)C2=O)cc1
951	N#Cc1cccc(S(=O)(=O)N2CCC(c3nnc(C(=O)Nc4ccc5c(c4)OCO5)s3)CC2)c1
784	COc1ccc2[nH]c(C(=O)N3CCN(C(=O)c4ccc(Br)o4)CC3)cc2c1
799	CCN1c2ccccc2C(=O)NC12CCN(C(=O)c1ccc(F)c(F)c1)CC2
712	Cc1nc(C2CCOCC2)n(C2CCN(S(=O)(=O)c3ccc(F)cc3F)C2)n1 (stereo unspecified)
889	Cc1ccc(NC(=O)C2CCCN(c3nccc(C)n3)C2)c(Br)c1 (stereo unspecified)
679	Cc1ccc(CNC(=O)c2csc(-c3ccc(N4CCCC4)nc3)n2)o1
645	O=C(CCc1cc2ccccc2[nH]c1=O)N1CCN(c2ncccn2)CC1
1040	CCn1cc(C(=O)Nc2ccc(F)c(C)c2)c(S(=O)(=O)N2CCSCC2)n1
1020	COc1cccc(-c2noc(CN3C(=O)COc4cc(Cl)ccc43)n2)c1OC
1010	Cc1ccc(NC(=O)N2CCCC(C)(C(=O)NCc3ccc(F)cc3)C2)c(Cl)c1 (stereo unspecified)
1090	CCCn1cc(C(=O)NCCCOCC)c(S(=O)(=O)N2CCN(c3ccccc3Cl)CC2)n1
652	Cc1cccc2nnc(N3CCN(C(=O)c4ccc(F)c(F)c4)CC3)n12
606	CCOc1ccc(-n2ccn3c(CCCC(=O)N4CCN(c5ccccn5)CC4)nnc3c2=O)cc1
851	O=C(CSc1cnc2ccccc2n1)N1CCN(c2ccc(F)cc2)CC1
775	CCc1nc(OCC(=O)Nc2ccccc2F)c2ccccc2n1
1070	CC(C)Cn1cc2c3c(cccc31)CN(C(=O)Nc1ccc(F)cc1)CC2
699	O=C(Nc1ccc(-c2nnc3n2CCCC3)cc1)C1CCCCC1
680	CCCCOc1ccc(-c2cc3c4nnc(CCC(=O)N5CCN(CC)CC5)n4ccn3n2)cc1
733	O=C(Nc1nnc(-c2ccc(Cl)s2)o1)c1ccc2ncsc2c1

Reference: the METLIN SMRT retention time set (Domingo-Almenara et al. 2019)
